This data set can be described thus: Metribuzin solubility in salt solutions. The format is physicochemical. To be noted: ammonium sulfate, ammonium acetate and potassium citrate tribasic monohydrate solutions; FIG. 1. As to the method: Metribuzin is partially soluble in water. Because of its partial solubility metribuzin grows crystals in aqueous solutions. It is a discovery of the present invention that, if water solubility of metribuzin is lowered, then crystal growth is inhibited or reduced. To determine if salts could lower the water solubility of metribuzin, metribuzin was added to the saturation point to several concentrations of ammonium sulfate, ammonium acetate and potassium citrate tribasic monohydrate solutions. Results can be seen in FIG. 1.

For the molecule `CSc1nnc(C(C)(C)C)c(=O)n1N` [metribuzin, Metribuzin], the “water solubility of metribuzin versus salt concentration” value is on record as “negatively correlated”.

These data come from patent publication US12708113B2, “Herbicidal compositions and methods of use thereof” (Valent U.S.A. LLC, priority 2018, dated 2026).
